Assay results reported in patent US8871753B2, “Macrocyclic compounds and their use as kinase inhibitors” (Incyte Corporation, priority 2008, dated 2014).
Structures can show the parent of a compound that is named as a salt. Where two headings read alike, the source gives them in different places.

Tests used:
Assay type in all cases: biochemical
[1] = target: T1, human JAK2 (a.a. 828-1132) (Homo sapiens, UniProt O60674); experiment: In vitro JAK kinase assay (HTRF, phosphorylation of a biotinylated peptide), JAK2
T1 construct: JAK2 (a.a. 828-1132); His tag (N); made in house; host or cells: insect cells (baculovirus)
How it was run: (§1)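 Kinase activity was measured as phosphorylation of a biotinylated peptide, with ATP at 90 μM for JAK1, 30 μM for JAK2 and 3 μM for JAK3. Reactions ran 1 hr at room temperature, were stopped with EDTA plus SA-APC and Eu-Py20, and were read by HTRF after 40 minutes of antibody binding.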

[2] = target: T2, human JAK3 (a.a. 781-1124) (Homo sapiens, UniProt P52333); experiment: In vitro JAK kinase assay (HTRF, phosphorylation of a biotinylated peptide), JAK3
T2 construct: JAK3 (a.a. 781-1124); His tag (N); made in house; host or cells: insect cells (baculovirus)
How it was run: as §1

[3] = target: T3, human JAK1 (a.a. 837-1142) (Homo sapiens, UniProt P23458); experiment: In vitro JAK kinase assay (HTRF, phosphorylation of a biotinylated peptide), JAK1; details: read-out: JAK1 IC50
T3 construct: human JAK1 (a.a. 837-1142); His tag (N); made in house; host or cells: insect cells (baculovirus)
How it was run: as §1

[4] = target: TYK2 (Homo sapiens, UniProt P29597); experiment: TYK2 kinase inhibition (Table A1)
TYK2, sequence (P29597 whole entry): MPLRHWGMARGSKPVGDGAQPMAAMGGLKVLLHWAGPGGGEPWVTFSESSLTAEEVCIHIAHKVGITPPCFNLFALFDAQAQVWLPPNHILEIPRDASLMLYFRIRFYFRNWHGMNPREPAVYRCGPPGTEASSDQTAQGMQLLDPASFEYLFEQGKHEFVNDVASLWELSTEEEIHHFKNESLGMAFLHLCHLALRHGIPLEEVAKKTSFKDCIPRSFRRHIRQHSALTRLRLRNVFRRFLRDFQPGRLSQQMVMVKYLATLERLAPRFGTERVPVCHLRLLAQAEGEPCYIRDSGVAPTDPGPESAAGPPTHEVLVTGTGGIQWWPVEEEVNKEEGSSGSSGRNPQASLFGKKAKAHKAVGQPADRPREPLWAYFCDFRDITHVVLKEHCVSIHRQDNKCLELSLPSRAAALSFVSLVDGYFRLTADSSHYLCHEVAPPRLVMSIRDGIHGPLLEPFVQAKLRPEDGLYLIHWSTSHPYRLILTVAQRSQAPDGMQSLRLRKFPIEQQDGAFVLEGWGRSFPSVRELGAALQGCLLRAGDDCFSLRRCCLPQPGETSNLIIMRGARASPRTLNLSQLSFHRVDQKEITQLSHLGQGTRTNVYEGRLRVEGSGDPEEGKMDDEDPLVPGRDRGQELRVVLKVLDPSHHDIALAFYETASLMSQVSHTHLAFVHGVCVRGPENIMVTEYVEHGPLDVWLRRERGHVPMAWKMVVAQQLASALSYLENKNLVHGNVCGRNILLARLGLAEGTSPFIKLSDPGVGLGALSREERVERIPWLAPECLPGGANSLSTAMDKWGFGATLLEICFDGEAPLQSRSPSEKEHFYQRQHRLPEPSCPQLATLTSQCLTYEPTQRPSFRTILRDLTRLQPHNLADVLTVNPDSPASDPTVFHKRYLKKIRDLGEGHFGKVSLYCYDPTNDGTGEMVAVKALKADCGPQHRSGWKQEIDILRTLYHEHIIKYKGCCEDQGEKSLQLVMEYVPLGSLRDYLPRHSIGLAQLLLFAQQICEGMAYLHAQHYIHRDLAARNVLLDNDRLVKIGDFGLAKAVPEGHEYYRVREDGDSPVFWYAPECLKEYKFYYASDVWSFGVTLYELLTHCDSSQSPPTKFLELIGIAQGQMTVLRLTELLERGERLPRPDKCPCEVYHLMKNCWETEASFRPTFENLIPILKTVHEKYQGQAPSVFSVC

T1 sequence (O60674 828-1132): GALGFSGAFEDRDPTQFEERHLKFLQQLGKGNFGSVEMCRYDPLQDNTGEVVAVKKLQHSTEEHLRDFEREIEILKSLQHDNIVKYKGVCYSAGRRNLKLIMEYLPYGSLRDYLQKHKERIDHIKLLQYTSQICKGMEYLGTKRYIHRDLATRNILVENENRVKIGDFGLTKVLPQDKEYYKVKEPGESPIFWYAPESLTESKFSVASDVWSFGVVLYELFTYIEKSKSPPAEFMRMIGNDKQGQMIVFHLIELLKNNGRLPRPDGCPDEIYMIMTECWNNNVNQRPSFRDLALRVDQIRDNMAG
T2 sequence (P52333 781-1124): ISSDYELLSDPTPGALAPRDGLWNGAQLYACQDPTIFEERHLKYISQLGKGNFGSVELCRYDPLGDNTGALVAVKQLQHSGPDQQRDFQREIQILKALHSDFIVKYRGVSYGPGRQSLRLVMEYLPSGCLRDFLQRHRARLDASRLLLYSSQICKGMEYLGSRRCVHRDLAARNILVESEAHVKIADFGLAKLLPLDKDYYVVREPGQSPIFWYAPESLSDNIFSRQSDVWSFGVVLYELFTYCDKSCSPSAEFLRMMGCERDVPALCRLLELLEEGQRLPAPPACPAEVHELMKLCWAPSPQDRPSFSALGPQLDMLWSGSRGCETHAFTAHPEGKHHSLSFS
T3 sequence (P23458 849-1154): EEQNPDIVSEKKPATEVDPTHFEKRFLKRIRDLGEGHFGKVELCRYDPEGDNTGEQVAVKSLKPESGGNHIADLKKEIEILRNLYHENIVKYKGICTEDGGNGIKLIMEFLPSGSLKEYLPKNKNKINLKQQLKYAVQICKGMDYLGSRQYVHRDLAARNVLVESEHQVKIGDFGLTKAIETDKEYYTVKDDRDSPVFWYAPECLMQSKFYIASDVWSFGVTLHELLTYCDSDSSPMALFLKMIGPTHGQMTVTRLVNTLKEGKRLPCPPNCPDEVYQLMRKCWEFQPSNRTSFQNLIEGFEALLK

CCCC(=O)N1Cc2cccc(c2)Nc2ncc(Cl)c(n2)Nc2cccc1c2 [Example C26, 14-Butyryl-6-chloro-2,4,8,14,22-pentaazatetracyclo[14.3.1.1(3,7).1(9,13)]docosa-1(20),3(22),4,6,9(21),10,12,16,18-nonaene]
IC50 [1]: 357 nM
IC50 [2]: > 10000 nM
IC50 [3]: 228 nM
IC50 [4]: 1420 nM

CN1CCN(Cc2cc3cc(c2)Nc2ncc(Cl)c(n2)Nc2cccc(c2)OCC3)CC1 [Example D190, 6-Chloro-19-[(4-methylpiperazin-1-yl)methyl]-14-oxa-2,4,8,23-tetraazatetracyclo[15.3.1.1(3,7).1(9,13)]tricosa-1(21),3(23),4,6,9(22),10,12,17,19-nonaene tris(trifluoroacetate)]
IC50 ([1]; Table D1): 0.9 nM
IC50 ([2]; Table D1): 3 nM
IC50 ([3]; Table D1): 24 nM
IC50 ([4]; Table D1): 3.5 nM

O=C(CC1CCN(c2nncs2)C1)Nc1ccc2cc1CCc1cncc(c1)Nc1ncc(Cl)c(n1)N2 (stereo not shown) [Example D155, N-[6-Chloro-2,4,8,18,22-pentaazatetracyclo[14.3.1.1(3,7).1(9,13)]docosa-1(20),3(22),4,6,9(21),10,12,16,18-nonaen-12-yl]-2-[1-(1,3,4-thiadiazol-2-yl)pyrrolidin-3-yl]acetamide tris(trifluoroacetate)]
IC50 ([1]; Table D1): 120 nM
IC50 ([2]; Table D1): > 400 nM
IC50 ([3]; Table D1): 29 nM
IC50 ([4]; Table D1): > 400 nM

Cn1cc(CC(=O)Nc2ccc3cc2CCc2cccc(c2)Nc2ncc(Cl)c(n2)N3)c2ccccc21 [Example C37, N-[6-Chloro-2,4,8,22-tetraazatetracyclo[14.3.1.1(3,7).1(9,13)]docosa-1(20),3(22),4,6,9(21),10,12,16,18-nonaen-12-yl]-2-(1-methyl-1H-indol-3-yl)acetamide trifluoroacetate]
IC50 [1]: 276 nM
IC50 [2]: 2620 nM
IC50 [3]: 496 nM
IC50 [4]: 581 nM

CC(=O)N1CCC(CCNc2ccc3cc2CCc2cncc(c2)Nc2ncc(Cl)c(n2)N3)CC1 [Example D219, N-[2-(1-Acetylpiperidin-4-yl)ethyl]-6-chloro-2,4,8,18,22-pentaazatetracyclo[14.3.1.1(3,7).1(9,13)]docosa-1(20),3(22),4,6,9(21),10,12,16,18-nonaen-12-amine tris(trifluoroacetate)]
IC50 ([1]; Table D1): 49 nM
IC50 ([2]; Table D1): > 400 nM
IC50 ([3]; Table D1): 14 nM
IC50 ([4]; Table D1): 38 nM

Cc1cnc2nc1Nc1ccc(NC(=O)CC3CCN(c4nncs4)CC3)c(c1)CCc1cccc(c1)N2 [Example C53, N-[6-Methyl-2,4,8,22-tetraazatetracyclo[14.3.1.1(3,7).1(9,13)]docosa-1(20),3(22),4,6,9(21),10,12,16,18-nonaen-12-yl]-2-[1-(1,3,4-thiadiazol-2-yl)piperidin-4-yl]acetamide trifluoroacetate]
IC50 [1]: > 200 nM
IC50 [2]: > 200 nM
IC50 [3]: 39 nM
IC50 [4]: 199 nM

Cc1nc(S(=O)(=O)Nc2ccc3cc2CCc2cccc(c2)Nc2ncc(Cl)c(n2)N3)cn1C [Example B151, N-[6-Chloro-2,4,8,22-tetraazatetracyclo[14.3.1.1(3,7).1(9,13)]docosa-1(20),3(22),4,6,9(21),10,12,16,18-nonaen-12-yl]-1,2-dimethyl-1H-imidazole-4-sulfonamide bis(trifluoroacetate)]
IC50 ([1]; Table B1): 1.2 nM
IC50 ([2]; Table B1): 36 nM
IC50 ([3]; Table B1): 2.9 nM
IC50 ([4]; Table B1): 1.4 nM

Cc1cc(C(=O)N2CCC(CC(=O)Nc3ccc4cc3CCc3cncc(c3)Nc3ncc(F)c(n3)N4)CC2)no1 [Example C49, N-[6-Fluoro-2,4,8,18,22-pentaazatetracyclo[14.3.1.1(3,7).1(9,13)]docosa-1(20),3(22),4,6,9(21),10,12,16,18-nonaen-12-yl]-2-{1-[(5-methylisoxazol-3-yl)carbonyl]piperidin-4-yl}acetamide trifluoroacetate]
IC50 [1]: > 400 nM
IC50 [2]: > 400 nM
IC50 [3]: 50 nM
IC50 [4]: 326 nM

O=C(Nc1ccccc1)N1CCC(COc2ccc3cc2CCc2cncc(c2)Nc2ncc(Cl)c(n2)N3)C1 (stereo not shown) [Example C59, 3-({[6-Chloro-2,4,8,18,22-pentaazatetracyclo[14.3.1.1(3,7).1(9,13)]docosa-1(20),3(22),4,6,9(21),10,12,16,18-nonaen-12-yl]oxy}methyl)-N-phenylpyrrolidine-1-carboxamide bis(trifluoroacetate)]
IC50 [1]: > 400 nM
IC50 [2]: > 400 nM
IC50 [3]: 102 nM
IC50 [4]: 371 nM

O=C(CC1CCN(c2ccccn2)C1)Nc1ccc2cc1CCc1cncc(c1)Nc1ncc(Cl)c(n1)N2 (stereo not shown) [Example D156, N-[6-Chloro-2,4,8,18,22-pentaazatetracyclo[14.3.1.1(3,7).1(9,13)]docosa-1(20),3(22),4,6,9(21),10,12,16,18-nonaen-12-yl]-2-(1-pyridin-2-ylpyrrolidin-3-yl)acetamide tris(trifluoroacetate)]
IC50 ([1]; Table D1): 29 nM
IC50 ([2]; Table D1): > 400 nM
IC50 ([3]; Table D1): 24 nM
IC50 ([4]; Table D1): 217 nM

O=C(Cc1nc2ccccc2[nH]1)Nc1ccc2cc1CCc1cccc(c1)Nc1ncc(Cl)c(n1)N2 [Example C44, 2-(1H-Benzimidazol-2-yl)-N-[6-chloro-2,4,8,22-tetraazatetracyclo[14.3.1.1(3,7).1(9,13)]docosa-1(20),3(22),4,6,9(21),10,12,16,18-nonaen-12-yl]acetamide bis(trifluoroacetate)]
IC50 [1]: 53 nM
IC50 [2]: 779 nM
IC50 [3]: 70 nM
IC50 [4]: 478 nM

N#Cc1ccccc1S(=O)(=O)N1CCC(COc2ccc3cc2CCc2cncc(c2)Nc2ncc(Cl)c(n2)N3)C1 (stereo not shown) [Example C57, 2-{[3-({[6-Chloro-2,4,8,18,22-pentaazatetracyclo[14.3.1.1(3,7).1(9,13)]docosa-1(20),3(22),4,6,9(21),10,12,16,18-nonaen-12-yl]oxy}methyl)pyrrolidin-1-yl]sulfonyl}benzonitrile bis(trifluoroacetate)]
IC50 [1]: 288 nM
IC50 [2]: > 400 nM
IC50 [3]: > 400 nM
IC50 [4]: > 400 nM

O=C(C[C@@H]1CCCN(C(=O)Nc2ccccc2)C1)Nc1ccc2cc1CCc1cncc(c1)Nc1ncc(Cl)c(n1)N2 [Example D198, (3S)-3-(2-{[6-Chloro-2,4,8,18,22-pentaazatetracyclo[14.3.1.1(3,7).1(9,13)]docosa-1(20),3(22),4,6,9(21),10,12,16,18-nonaen-12-yl]amino}-2-oxoethyl)-N-phenylpiperidine-1-carboxamide bis(trifluoroacetate)]
IC50 ([1]; Table D1): 10 nM
IC50 ([2]; Table D1): 69 nM
IC50 ([3]; Table D1): 5.7 nM
IC50 ([4]; Table D1): 27 nM

O=C(NCc1ccco1)Nc1ccc2cc1CCc1cncc(c1)Nc1ncc(Cl)c(n1)N2 [Example B134, N-[6-Chloro-2,4,8,18,22-pentaazatetracyclo[14.3.1.1(3,7).1(9,13)]docosa-1(20),3(22),4,6,9(21),10,12,16,18-nonaen-12-yl]-N′-(2-furylmethyl)urea bis(trifluoroacetate)]
IC50 ([1]; Table B1): 1.7 nM
IC50 ([2]; Table B1): 23 nM
IC50 ([3]; Table B1): 0.75 nM
IC50 ([4]; Table B1): 2.8 nM

O=C(COc1ccc2cc1CCc1cncc(c1)Nc1ncc(Cl)c(n1)N2)N1CCN(c2nccc3occc23)CC1 [Example D245, 6-Chloro-12-[2-(4-furo[3,2-c]pyridin-4-ylpiperazin-1-yl)-2-oxoethoxy]-2,4,8,18,22-pentaazatetracyclo[14.3.1.1(3,7).1(9,13)]docosa-1(20),3(22),4,6,9(21),10,12,16,18-nonaene tris(trifluoroacetate)]
IC50 ([1]; Table D1): > 400 nM
IC50 ([2]; Table D1): > 400 nM
IC50 ([3]; Table D1): 75 nM
IC50 ([4]; Table D1): > 400 nM

O=C(c1ccccc1)N1Cc2cccc(c2)Nc2ncc(Cl)c(n2)Nc2cccc1c2 [Example C22, 14-Benzoyl-6-chloro-2,4,8,14,22-pentaazatetracyclo[14.3.1.1(3,7).1(9,13)]docosa-1(20),3(22),4,6,9(21),10,12,16,18-nonaene]
IC50 [1]: 32 nM
IC50 [2]: > 400 nM
IC50 [3]: 24 nM
IC50 [4]: 88 nM

O=C(C[C@H]1CCCNC1)Nc1ccc2cc1CCc1cccc(c1)Nc1ncc(Cl)c(n1)N2 [Example D193, N-[6-Chloro-2,4,8,22-tetraazatetracyclo[14.3.1.1(3,7).1(9,13)]docosa-1(20),3(22),4,6,9(21),10,12,16,18-nonaen-12-yl]-2-[(3R)-piperidin-3-yl]acetamidebis(trifluoroacetate)]
IC50 ([1]; Table D1): 8.3 nM
IC50 ([2]; Table D1): 32 nM
IC50 ([3]; Table D1): 1.4 nM
IC50 ([4]; Table D1): 6.1 nM

Clc1cnc2nc1Nc1ccc(OCC3CCNC3)c(c1)CCc1cncc(c1)N2 (stereo not shown) [Example C55, 6-Chloro-12-(pyrrolidin-3-ylmethoxy)-2,4,8,18,22-pentaazatetracyclo[14.3.1.1(3,7).1(9,13)]docosa-1(20),3(22),4,6,9(21),10,12,16,18-nonaene trihydrochloride]
IC50 [1]: > 400 nM
IC50 [2]: > 400 nM
IC50 [3]: 96 nM
IC50 [4]: > 400 nM

Cc1cc(C(=O)N2CCC(CCNc3ccc4cc3CCc3cncc(c3)Nc3ncc(Cl)c(n3)N4)CC2)no1 [Example D218, 6-Chloro-N-(2-{1-[(5-methylisoxazol-3-yl)carbonyl]piperidin-4-yl}ethyl)-2,4,8,18,22-pentaazatetracyclo[14.3.1.1(3,7).1(9,13)]docosa-1(20),3(22),4,6,9(21),10,12,16,18-nonaen-12-amine tris(trifluoroacetate)]
IC50 ([1]; Table D1): 64 nM
IC50 ([2]; Table D1): > 400 nM
IC50 ([3]; Table D1): 13 nM
IC50 ([4]; Table D1): 46 nM
